The source of these data is article PMC9172056 (Journal of medicinal chemistry, 2022).

The target in one data set is MERS-CoV 3CL^pro (Middle East respiratory syndrome-related coronavirus, UniProt K9N7C7). Nature of the data set: biochemical.
In a further data set the target is SARS-CoV-2 3CL^pro (Severe acute respiratory syndrome coronavirus 2, UniProt P0DTD1). Nature of the data set: biochemical. It is filed as biochemical.
Another data set is described as follows: in vitro. The note with it: cat.

Sequence of MERS-CoV 3CL^pro (K9N7C7 3248-3553 limits assumed): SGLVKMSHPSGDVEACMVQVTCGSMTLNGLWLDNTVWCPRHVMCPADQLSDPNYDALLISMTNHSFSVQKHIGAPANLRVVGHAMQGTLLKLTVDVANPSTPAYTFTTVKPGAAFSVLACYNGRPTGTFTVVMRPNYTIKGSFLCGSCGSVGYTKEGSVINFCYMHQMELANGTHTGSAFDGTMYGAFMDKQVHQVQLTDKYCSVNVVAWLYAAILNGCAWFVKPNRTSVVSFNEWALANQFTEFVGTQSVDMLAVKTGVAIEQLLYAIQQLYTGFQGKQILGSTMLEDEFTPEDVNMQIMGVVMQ

With `CC(C)C[C@H](NC(=O)OC1CC2(CCN(C(=O)C(C)C)CC2)C1)C(=O)N[C@@H](C[C@H]1CCNC1=O)C(O)S(=O)(=O)O` (stereo partly drawn) [Compound 8c, Sodium (2S)-1-hydroxy-2-((S)-2-((((7-isobutyryl-7-azaspiro[3.5]nonan-2-yl)oxy)carbonyl)amino)-4-methylpentanamido)-3-((R)-2-oxopyrrolidin-3-yl)propane-1-sulfonate], the IC50 was 0.52 ± 0.12 µM against MERS-CoV 3CL^pro and 0.41 ± 0.01 µM against SARS-CoV-2 3CL^pro. In the data set “in vitro”, this molecule had a CC50 of more than 100 µM.
As to `CC(C)C[C@H](NC(=O)OC1CC2(CCN(C(=O)OC(C)(C)C)C2)C1)C(=O)N[C@H](C=O)C[C@H]1CCNC1=O` (stereo partly drawn) [Compound 5b, tert-Butyl 2-((((S)-4-methyl-1-oxo-1-(((S)-1-oxo-3-((R)-2-oxopyrrolidin-3-yl)propan-2-yl)amino)pentan-2-yl)carbamoyl)oxy)-6-azaspiro[3.4]octane-6-carboxylate], the midpoint of inhibition on MERS-CoV 3CL^pro, the IC50, lay at 0.7 ± 0.14 µM. Also, the CC50 in “in vitro” is more than 100 µM.
The molecule `CC(C)C[C@H](NC(=O)OC1CC2(CCN(C(=O)C(C)C)CC2)C1)C(=O)N[C@H](C=O)C[C@H]1CCNC1=O` [Compound 8b, 7-Isobutyryl-7-azaspiro[3.5]nonan-2-yl ((S)-4-methyl-1-oxo-1-(((S)-1-oxo-3-((R)-2-oxopyrrolidin-3-yl)propan-2-yl)amino)pentan-2-yl)carbamate] came in with a CC50 in “in vitro” of more than 100 µM.
Still for that read-out and setting: with `CC(C)C[C@H](NC(=O)OC1CC2(CCN(C(=O)Cc3ccccc3)CC2)C1)C(=O)N[C@H](C=O)C[C@H]1CCNC1=O` [Compound 9b, 7-(2-Phenylacetyl)-7-azaspiro[3.5]nonan-2-yl ((S)-4-methyl-1-oxo-1-(((S)-1-oxo-3-((R)-2-oxopyrrolidin-3-yl)propan-2-yl)amino)pentan-2-yl)carbamate] the figure was more than 100 µM; with `CC(C)C[C@H](NC(=O)OCC1CN(C(=O)Cc2ccccc2)C1)C(=O)N[C@H](C=O)C[C@H]1CCNC1=O` [Compound 15b, (1-(2-Phenylacetyl)azetidin-3-yl)methyl ((S)-4-methyl-1-oxo-1-(((S)-1-oxo-3-((R)-2-oxopyrrolidin-3-yl)propan-2-yl)amino)pentan-2-yl)carbamate], more than 100 µM; with `CC(C)C[C@H](NC(=O)OC1CC2(C1)CN(C(=O)OC(C)(C)C)C2)C(=O)N[C@H](C=O)C[C@H]1CCNC1=O` [Compound 1b, tert-Butyl 6-((((S)-4-methyl-1-oxo-1-(((S)-1-oxo-3-((R)-2-oxopyrrolidin-3-yl)propan-2-yl)amino)pentan-2-yl)carbamoyl)oxy)-2-azaspiro[3.3]heptane-2-carboxylate], more than 100 µM.
The molecule `CC(C)C[C@H](NC(=O)OC1CC2(C1)CN(C(=O)C(C)C)C2)C(=O)N[C@H](C=O)C[C@H]1CCNC1=O` [Compound 2b, 2-Isobutyryl-2-azaspiro[3.3]heptan-6-yl ((S)-4-methyl-1-oxo-1-(((S)-1-oxo-3-((R)-2-oxopyrrolidin-3-yl)propan-2-yl)amino)pentan-2-yl)carbamate] displayed a CC50 in the data set “in vitro” of more than 100 µM.
Same read-out and setting: in the case of `CC(C)C[C@H](NC(=O)OC1CN(C(=O)OC(C)(C)C)C1)C(=O)N[C@H](C=O)C[C@H]1CCNC1=O` [Compound 12b, tert-Butyl 3-((((S)-4-methyl-1-oxo-1-(((S)-1-oxo-3-((R)-2-oxopyrrolidin-3-yl)propan-2-yl)amino)pentan-2-yl)carbamoyl)oxy)azetidine-1-carboxylate] it was more than 100 µM; in that of `CC(C)C[C@H](NC(=O)OC1CCC2(C1)CN(C(=O)OC(C)(C)C)C2)C(=O)N[C@H](C=O)C[C@H]1CCNC1=O` (stereo partly drawn) [Compound 6b, tert-Butyl 6-((((S)-4-methyl-1-oxo-1-(((S)-1-oxo-3-((R)-2-oxopyrrolidin-3-yl)propan-2-yl)amino)pentan-2-yl)carbamoyl)oxy)-2-azaspiro[3.4]octane-2-carboxylate], more than 100 µM.
In the case of `CC(C)C[C@H](NC(=O)OC1CC2(C1)CN(C(=O)Cc1ccccc1)C2)C(=O)N[C@@H](C[C@H]1CCNC1=O)C(O)S(=O)(=O)O` (stereo partly drawn) [Compound 3c, Sodium (2S)-1-hydroxy-2-((S)-4-methyl-2-((((2-(2-phenylacetyl)-2-azaspiro[3.3]heptan-6-yl)oxy)carbonyl)amino)pentanamido)-3-((R)-2-oxopyrrolidin-3-yl)propane-1-sulfonate], the IC50 turned out to be 0.13 ± 0.03 µM on MERS-CoV 3CL^pro and 0.26 ± 0.05 µM against SARS-CoV-2 3CL^pro. In “in vitro”, this molecule had a CC50 of more than 100 µM.
As for `CC(C)C[C@H](NC(=O)OC1CC2(C1)CN(C(=O)Cc1ccccc1)C2)C(=O)N[C@H](C=O)C[C@H]1CCNC1=O` [Compound 3b, 2-(2-Phenylacetyl)-2-azaspiro[3.3]heptan-6-yl ((S)-4-methyl-1-oxo-1-(((S)-1-oxo-3-((R)-2-oxopyrrolidin-3-yl)propan-2-yl)amino)pentan-2-yl)carbamate], the “fold lower IC50 than compound 1b” value at SARS-CoV-2 3CL^pro is given as approximately 13 fold. Further, the CC50 in “in vitro” was more than 100 µM.
Molecule `CC(C)C[C@H](NC(=O)OC1CC2(CCN(S(C)(=O)=O)CC2)C1)C(=O)N[C@H](C=O)C[C@H]1CCNC1=O` [Compound 10b, 7-(Methylsulfonyl)-7-azaspiro[3.5]nonan-2-yl ((S)-4-methyl-1-oxo-1-(((S)-1-oxo-3-((R)-2-oxopyrrolidin-3-yl)propan-2-yl)amino)pentan-2-yl)carbamate] gave a CC50 in “in vitro” of more than 100 µM.
As for `CC(C)C[C@H](NC(=O)OC1(C)CN(C(=O)OC(C)(C)C)C1)C(=O)N[C@@H](C[C@H]1CCNC1=O)C(O)S(=O)(=O)O` (stereo partly drawn) [Compound 13c, Sodium (2S)-2-((S)-2-((((1-(tert-butoxycarbonyl)-3-methylazetidin-3-yl)oxy)carbonyl)amino)-4-methylpentanamido)-1-hydroxy-3-((R)-2-oxopyrrolidin-3-yl)propane-1-sulfonate], the concentration for half-maximal inhibition (IC50) against MERS-CoV 3CL^pro came to 4.3 ± 0.28 µM; against SARS-CoV-2 3CL^pro, 2.5 ± 0.57 µM. Besides, the CC50 in the data set “in vitro” is more than 100 µM.
The molecule `CC(C)C[C@H](NC(=O)OC1(C)CN(C(=O)OC(C)(C)C)C1)C(=O)N[C@H](C=O)C[C@H]1CCNC1=O` [Compound 13b, tert-Butyl 3-methyl-3-((((S)-4-methyl-1-oxo-1-(((S)-1-oxo-3-((R)-2-oxopyrrolidin-3-yl)propan-2-yl)amino)pentan-2-yl)carbamoyl)oxy)azetidine-1-carboxylate] gave a CC50 in “in vitro” of more than 100 µM.
As for `CC(C)C[C@H](NC(=O)OC1CC2(CCN(S(C)(=O)=O)CC2)C1)C(=O)N[C@@H](C[C@H]1CCNC1=O)C(O)S(=O)(=O)O` (stereo partly drawn) [Compound 10c, Sodium (2S)-1-hydroxy-2-((S)-4-methyl-2-((((7-(methylsulfonyl)-7-azaspiro[3.5]nonan-2-yl)oxy)carbonyl)amino)pentanamido)-3-((R)-2-oxopyrrolidin-3-yl)propane-1-sulfonate], the half-maximal inhibitory concentration (IC50) on MERS-CoV 3CL^pro came to 0.33 ± 0.04 µM; on SARS-CoV-2 3CL^pro it was 0.24 ± 0.03 µM. Moreover, the CC50 in the data set “in vitro” was more than 100 µM.
The matching figures for `CC(C)C[C@H](NC(=O)OC1CN(C(=O)OC(C)(C)C)C1)C(=O)N[C@@H](C[C@H]1CCNC1=O)C(O)S(=O)(=O)O` (stereo partly drawn) [Compound 12c, Sodium (2S)-2-((S)-2-((((1-(tert-butoxycarbonyl)azetidin-3-yl)oxy)carbonyl)amino)-4-methylpentanamido)-1-hydroxy-3-((R)-2-oxopyrrolidin-3-yl)propane-1-sulfonate]: 2.55 ± 0.92 µM, 3.05 ± 0.35 µM and more than 100 µM.
On to `CC(C)C[C@H](NC(=O)OCC1CN(S(C)(=O)=O)C1)C(=O)N[C@@H](C[C@H]1CCNC1=O)C(O)S(=O)(=O)O` (stereo partly drawn) [Compound 17c, Sodium (2S)-1-hydroxy-2-((S)-4-methyl-2-((((1-(methylsulfonyl)azetidin-3-yl)methoxy)carbonyl)amino)pentanamido)-3-((R)-2-oxopyrrolidin-3-yl)propane-1-sulfonate], for which the IC50 on MERS-CoV 3CL^pro stood at 1.35 ± 0.21 µM; against SARS-CoV-2 3CL^pro, 4.05 ± 0.78 µM. Further, the CC50 in the data set “in vitro” is more than 100 µM.
In the data set “in vitro”, `[2H]C([2H])(OC(=O)N[C@@H](CC(C)C)C(=O)N[C@H](C=O)C[C@H]1CCNC1=O)C1CN(C(=O)OC(C)(C)C)C1` [Compound 18b, tert-Butyl 3-(((((S)-4-methyl-1-oxo-1-(((S)-1-oxo-3-((R)-2-oxopyrrolidin-3-yl)propan-2-yl)amino)pentan-2-yl)carbamoyl)oxy)methyl-d2)azetidine-1-carboxylate] yielded a CC50 of more than 100 µM.
In the data set “in vitro”, `CC(C)C[C@H](NC(=O)OC1CC2(C1)CN(S(C)(=O)=O)C2)C(=O)N[C@H](C=O)C[C@H]1CCNC1=O` [Compound 4b, 2-(Methylsulfonyl)-2-azaspiro[3.3]heptan-6-yl ((S)-4-methyl-1-oxo-1-(((S)-1-oxo-3-((R)-2-oxopyrrolidin-3-yl)propan-2-yl)amino)pentan-2-yl)carbamate] returned a CC50 of more than 100 µM.
The same measure, in the same setting: with `CC(C)C[C@H](NC(=O)OC1CC2(CCN(C#N)CC2)C1)C(=O)N[C@H](C=O)C[C@H]1CCNC1=O` [Compound 11b, 7-Cyano-7-azaspiro[3.5]nonan-2-yl ((S)-4-methyl-1-oxo-1-(((S)-1-oxo-3-((R)-2-oxopyrrolidin-3-yl)propan-2-yl)amino)pentan-2-yl)carbamate] the figure was more than 100 µM.
`CC(C)C[C@H](NC(=O)OCC1CN(C(=O)C2CC3CCC2C3)C1)C(=O)N[C@H](C=O)C[C@H]1CCNC1=O` (stereo partly drawn) [Compound 16b, (1-(Bicyclo[2.2.1]heptane-2-carbonyl)azetidin-3-yl)methyl ((S)-4-methyl-1-oxo-1-(((S)-1-oxo-3-((R)-2-oxopyrrolidin-3-yl)propan-2-yl)amino)pentan-2-yl)carbamate] returned a CC50 in “in vitro” of more than 100 µM.
`CC(C)C[C@H](NC(=O)OCC1CN(S(C)(=O)=O)C1)C(=O)N[C@H](C=O)C[C@H]1CCNC1=O` [Compound 17b, (1-(Methylsulfonyl)azetidin-3-yl)methyl ((S)-4-methyl-1-oxo-1-(((S)-1-oxo-3-((R)-2-oxopyrrolidin-3-yl)propan-2-yl)amino)pentan-2-yl)carbamate] showed a CC50 in the data set “in vitro” of more than 100 µM.
